Results: ChEMBL document CHEMBL1149609, “Synthesis and evaluation of human T cell stimulating activity of an alpha-sulfatide analogue” (Bioorg Med Chem, 2007)
The source made the active and inactive calls. The calls are words filed in the database; no cut-off is given here.

Assays:
Type in all cases: functional
Homo sapiens [1] = species on record: Homo sapiens; experiment: Stimulation of CD1d-restricted iNKTcell clone BGA89 assessed as IL4 release after 48 hrs by ELISA
Homo sapiens [2] = species on record: Homo sapiens; experiment: Stimulation of sulfatide-specific CD1a-restricted Tcell clone K34B9.1 assessed as IL4 release after 48 hrs by ELISA
Homo sapiens [3] = species on record: Homo sapiens; experiment: Stimulation of CD1d-restricted iNKTcell clone BGA01 assessed as IL4 release after 48 hrs by ELISA
Homo sapiens [4] = species on record: Homo sapiens; experiment: Stimulation of CD1d-restricted iNKTcell clone BGA89 assessed as gammaIFN release after 48 hrs by ELISA
Homo sapiens [5] = species on record: Homo sapiens; experiment: Stimulation of CD1d-restricted iNKTcell clone BGA01 assessed as gammaIFN release after 48 hrs by ELISA
Homo sapiens [6] = species on record: Homo sapiens; experiment: Stimulation of sulfatide-specific CD1a-restricted Tcell clone K34B9.1 assessed as gammaIFN release after 48 hrs by ELISA

Structure (SMILES): CCCCCCCCCCCCC/C=C/[C@@H](O)[C@H](CO[C@H]1O[C@H](CO)[C@H](O)[C@H](OS(=O)(=O)O)[C@H]1O)NC(=O)CCCCCCCCCCCCCCCCCCCCC
- Activity (Homo sapiens [1]): Active
- Activity (Homo sapiens [2]): inactive
- Activity (Homo sapiens [3]): Active
- Activity (Homo sapiens [4]): Active
- Activity (Homo sapiens [5]): Active
- Activity (Homo sapiens [6]): inactive
